The subject of one test is Wnt signaling. Kind of test: TOPflash reporter assay, HEK 293 STF cells treated with Wnt3a. It is filed as cell-based. As for the experimental part: Graph represents mean±s.e.m of TOPflash signal normalized to cell number (performed in quadruplicate). […] Data shown represent mean of four independent amplification reactions, graphed as relative expression to unstimulated cells. Expression levels were normalized to β-actin mRNA. Error bars, RQ values with 95% confidence.
CK1α immunoprecipitated from lysates was incubated with purified β-catenin (100 nM) in kinase assay containing (^γ32P)ATP. Samples were processed for SDS-PAGE/autoradiography. As control, immunoprecipitates were treated with the CK1 inhibitor, CKI-7 (1 μM). […] HA immunoprecipitates were analyzed by LCMS. Graph represents mean±s.e.m. of relative abundance of pyrvinium normalized to bead control (performed in triplicate). […] (FIG. 9C) Structure of VU-WS113. […] (FIG. 9F) CK1α (100 nM) was incubated with recombinant casein (100 nM) in the presence or absence of compounds in a kinase reaction containing [γ32P]ATP. […] Mean±s.e.m. is shown (performed in triplicates).

Test [1] relates to C57Bl/6 mice. In words: myocardial infarct model, daily IP injection, Ki67/Sca1 histology.
Excerpt: Myocardial infarcts were induced in male C57Bl/6 mice by coronary ligation. A sham-injured cohort underwent all aspects of the procedure except ligation of the coronary artery. […] Mice were sacrificed (n=3 for each time point and each condition) on days 7, 9 and 15 after injury. Hearts were isolated for histologic analysis.
Test [2] deals with C57Bl/6 mice. Kind of test: 2 mm ear punch wound model. The test is classed as in vivo. The conditions noted are these: day 30. From the text: (FIG. 8A) Low magnification (4×) view of H&E stained slide showing epithelial repair of wounded skin treated with 211 at 30 days after injury. […] (FIGS. 8C-D) represent H&E of low (10×) and high (20×) magnification view of pyrvinium-treated ears. (FIGS. 8E-F) Trichrome blue staining showing low (FIG. 8E, 10×) and high power (FIG. 8F, 20×) view of pyrvinium-repaired ear.
The ears of six month old C57BL/6 mice were wounded by a 2 mm ear punch (n=3). […] The wounds were monitored over a period of 1 month and the digital photographs of the healing ears were taken periodically. […] The mice were sacrificed at day 30 and histological analysis of the wounded ear was performed.
FIGS. 8C-D show H&E stained slide of low (10×) and high (20×) magnifications of pyrvinium-treated ears.

For the next test, the target named is CK1α (Homo sapiens, UniProt P48729). Kind of test: kinase activity of purified recombinant CK1α (Tau, casein substrates; kinase panel). The test is classed as biochemical. The protocol:
CK1α immunoprecipitated from lysates was incubated with purified β-catenin (100 nM) in kinase assay containing (^γ32P)ATP. Samples were processed for SDS-PAGE/autoradiography. As control, immunoprecipitates were treated with the CK1 inhibitor, CKI-7 (1 μM). […] HA immunoprecipitates were analyzed by LCMS. […] (FIG. 9C) Structure of VU-WS113. […] (FIG. 9F) CK1α (100 nM) was incubated with recombinant casein (100 nM) in the presence or absence of compounds in a kinase reaction containing [γ32P]ATP. […] Mean±s.e.m. is shown (performed in triplicates).

Test [3] has as its system C57Bl/6 mice. It is filed as in vivo. As to conditions: p<0.05. From the text: FIGS. 5A-D. Mouse MI model. Representative mouse EKG tracings pre (FIG. 5A) and post (FIG. 5B) coronary artery ligation. […] Arrows mark lateral and posterior left ventricle (LV). LVIDD, LVIDS=LV internal diameter at systole and […], respectively. RV=right ventricle. […] Cardiac dimensions were obtained from 2-D guided M-mode images (100 frames/sec) and were read blinded using short axis and a parasternal long-axis views with the leading edge method. All echo measurements were averaged over 3 consecutive beats on unsedated mice at 7 and 30 days after infarction. Statistical significance assessed by the Wilcoxon rank sum test.
Ventricular remodeling and cardiac functional parameters will be assessed by echo.
Mammalian cardiomyocytes irreversibly withdraw from the cell cycle soon after birth and undergo terminal differentiation. […] Therefore, cardiac injury causes permanent myocardial loss and cardiac dysfunction. […] Proliferation was assessed by immunostaining for Ki-67.

We go through two molecules from patent US20120318262A1 (priority 2011, published 2012).

Chain of CK1α (P48729 whole entry): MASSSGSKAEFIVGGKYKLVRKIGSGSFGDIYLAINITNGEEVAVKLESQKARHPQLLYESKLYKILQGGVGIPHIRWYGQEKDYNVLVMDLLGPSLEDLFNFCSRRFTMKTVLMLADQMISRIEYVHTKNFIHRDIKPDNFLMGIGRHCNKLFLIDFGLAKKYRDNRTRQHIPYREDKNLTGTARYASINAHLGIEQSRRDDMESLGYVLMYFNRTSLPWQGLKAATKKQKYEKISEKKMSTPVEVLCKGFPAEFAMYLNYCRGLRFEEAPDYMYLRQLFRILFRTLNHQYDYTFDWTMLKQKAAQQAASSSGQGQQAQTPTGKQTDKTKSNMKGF

On to `Cc1cc(C(=O)Nc2ccc3cc(CN4CCOCC4)ccc3n2)c(C)n1-c1ccccc1` [VU-WS113, 2,5-dimethyl-N-(6-(morpholinomethyl)quinolin-2-yl)-1-phenyl-1H-pyrrole-3-carboxamide], for which the “inhibition of TOPflash / Wnt signaling” value in the test with Wnt signaling (Wnt3a) is listed as “retained the capacity to inhibit Wnt signaling”. Besides, in the test on C57Bl/6 mice [1] (40 μg/kg IP), the “Ki-67+ cells co-labeled with Sca1+ antibody” value is given as “at least 50%” and the “Sca1+ CPCs share of Wnt-inhibitor responsive population” value is reported as greater than 60%. In the test with C57Bl/6 mice [1] (40 μg/kg IP daily through day 6, 7-9 days after MI), the “increase in left ventricular, peri-infarct Ki67+ cells” value is given as 10-13 fold. Besides, the “post-infarct proliferation of cardiac progenitors” value with C57Bl/6 mice [1] (7 d after injury, control C-211) is given as “significantly enhances post-infarct proliferation of cardiac progenitors”. For the same molecule, the “histology of wounded ear” value in the test with C57Bl/6 mice [2] (listed as Cmpd 113) is listed as “injured hole was repaired”. Further, in the test on C57Bl/6 mice [2] (listed as compound 113), the “histology of wounded ear” value was “Injured hole was repaired”. Also, the “activation of CK1α” value at CK1α was “activate CK1α”.

A word on the IC50: it is the concentration at which inhibition is half-maximal. `Cc1cc(/C=C/c2ccc3cc(N(C)C)ccc3[n+]2C)c(C)n1-c1ccccc1` [pyrvinium, 6-(Dimethylamino)-2-[2-(2,5-dimethyl-1-phenyl-1H-pyrrol-3-yl)ethenyl]-1-methylquinolinium, reference compound]: the concentration for half-maximal inhibition (IC50) in the test with Wnt signaling (Wnt3a-conditioned media, 24 hours, read-out: IC50 of TOPflash (Wnt signaling) inhibition) was roughly 10 nM. Also, the “average difference in fractional shortening between days 7 and 30” value in the test with C57Bl/6 mice [3] was 22.3±5.2.
